Data: patent US11066668B2, “Compositions and methods for modulation of IKBKAP splicing” (Ionis Pharmaceuticals, Inc., priority 2012, dated 2021)
“Also recorded” adds a separate entry of the source. Oligonucleotides are written 5' to 3', each unit as a sugar letter and its base; * is a phosphorothioate linkage, no mark a phosphodiester; rarer units and linkages stand in square brackets, end groups in braces. Plain capitals give the bases only. e = 2'-O-(2-methoxyethyl) (MOE); [5mC] = 5-methylcytosine

Legend:
[1] = tested on: IKBKAP mRNA in GM04899 fibroblasts; test: Exon 20 inclusion in FD patient skin fibroblast line GM04899 (RT-PCR); type: cell-based, human; settings: for % inclusion of exon 20: Lipofectamine 2000, two days, relative to IMR90 cells (100%)
Procedure: To investigate the effect of ISIS 421992 on patient-derived fibroblasts, the patient skin fibroblast line GM04899 (Coriell Cell Repository) was utilized. The cell line was derived from an individual homozygous for the major FD mutation.
GM04899 was cultured in minimal essential medium (Invitrogen) supplemented with non-essential amino acids (Invitrogen) and 20% (v/v) fetal bovine serum. The cells were grown to 40-50% confluence in 10-cm dishes. Cells were transfected with 2 nM, 5 nM, 25 nM, or 125 nM concentrations of ISIS 421992 using 12 μL Lipofectamine 2000 transfection reagent (Invitrogen). Two days later, cDNA synthesized from total RNA extracted from HEK-293 cells was amplified using the forward primer pCDNAF and reverse primer sequence IKAP21R4 to assay the splicing pattern of expressed RNAs by RT-PCR. To calculate exon 20 inclusion levels, the PCR amplicons were labeled with α^32P-dCTP. The PCR products were then separated by native PAGE, followed by phosphorimage analysis. The band intensities were quantified and values were normalized for the G+C content according to the DNA sequence. Multiple lanes for each condition represent independent experiments.
A batch of cells was treated with solvent (NaOH) only of the kinetin solution as a control. RNA from IMR90, a wild-type normal diploid lung fibroblast cell line was used as positive control. The results are expressed as percent inclusion of exon 20 compared to the exon 20 inclusion (100%) of IKBKAP mRNA in IMR90 cells.

IKAP protein = IKAP protein levels in GM04899 fibroblasts (SDS-PAGE, anti-IKAP antibody, band intensity); type: cell-based, human
Procedure: Protein samples were obtained by Trizol extraction and separated by SDS-PAGE. The bands were transferred onto a nitrocellulose membrane and probed with an anti-IKAP antibody (abcam #ab56362) (1:1,000 dilution in 5% milk in TBST) for 12 hrs. The membrane was washed 5 times with TBST for 5 min each and then probed with secondary antibody 800 nm LiCor (1:5,000 in 5% milk in TBST) for 1 hr in the dark. The membrane was subsequently washed 5 times with TBST for 5 min each. The bands were then exposed at 800 nm and band intensity was quantified using an Odyssey (LiCor) instrument. The results are presented in Table 4 as percent increase in band intensity compared to the control oligonucleotide-treated bands.

human IKBKAP mRNA [2] = test: Exon 20 inclusion in adult transgenic mice after intracerebroventricular infusion; type: in vivo, mouse; settings: for Percent inclusion of exon 20 in human IKBKAP mRNA: thoracic spinal cord, day 8
Procedure: (§1) To investigate the effect of ISIS 421992 in an animal model, transgenic mice that carry the entire human IKBKAP gene with the major FD mutation, in addition to being homozygous wild type at the mouse Ikbkap locus, were obtained from an NIH core facility.
Adult mice were treated with ISIS 421992 administered by intracerebroventricular infusion at the rate of 50 μg/day, 100 μg/day, or 200 μg/day. The protocol has been previously described by Hua et al. (Genes Dev. 2010. 24: 1634-1644). Adult mice 3-4 months old and weighing 20-30 g, were anesthetized and placed on a digital stereotaxic instrument (David Kopf Instruments). A small burr hole at the surgical site 1.8 mm lateral to the sagittal suture and 0.3 mm posterior to the bregma suture was drilled through the skull above the right lateral ventricle. A cannula with a 2.2 mm stylet was positioned in the hole. The cannula was connected to an Alzet micro-osmotic pump (model 1007D, Durect Corporation) with a vinyl catheter. The pump, prefilled with the oligonucleotide solution or PBS only was implanted subcutaneously on the back and continuously infused the solution through the cannula into the lateral ventricle at a rate of 0.5 μL per hour. After a week of ICV infusion, the mice were euthanized on day 8 and RNA from the thoracic spinal cord of the transgenic mice was extracted using Trizol and following the manufacturer's protocol. Multiple lanes for each condition represent independent experiments.

human IKBKAP mRNA [3] = test: Exon 20 inclusion in neonatal transgenic mice after single ICV or subcutaneous injection; type: in vivo, mouse; settings: neonatal Tg mice
Procedure: as §1
Neonatal transgenic mice were also treated with ISIS 421992 administered as a single ICV injection dose of 2.5 μg, 5 μg, 10 μg, 20 μg, or 30 μg. A group of neonatal mice were treated with ISIS 421992 administered subcutaneously using a 10 μL micro syringe (Hamilton) and a 33-gauge needle. In all cases, the injections were administered at P1 and the RNA was assayed at P8. The RNA splicing patterns in the various tissues after administering ISIS 421992 in neonate mice were then observed. Multiple lanes for each condition represent independent experiments.

ISIS 421992: uniform 2′-MOE 20-mer, phosphate backbone; GTCGCAAACAGTACAATGGC, SEQ ID NO 61, intron 20 (eGeTe[5mC]eGe[5mC]eAeAeAe[5mC]eAeGeTeAe[5mC]eAeAeTeGeGe[5mC])
% inclusion of exon 20 ([1]; GM04899, 2 nM): 79% | % inclusion of exon 20 ([1]; GM04899, 5 nM): 95% | % inclusion of exon 20 ([1]; GM04899, 25 nM): 96% | % inclusion of exon 20 ([1]; GM04899, 125 nM): 97% | effect on the splicing defect / full-length mRNA levels, in words ([1]; GM04899 fibroblasts): almost completely suppressed the splicing defect; also recorded: as effective as treatment with kinetin for 3 days in restoring full-length mRNA levels | Percent increase in protein band intensity (IKAP) (IKAP protein; GM04899, 2 nM as printed in Table 4, 3 days after transfection, compared to control oligonucleotide-treated bands): 76% | IKAP protein levels, in words (IKAP protein; GM04899, 5 nM, assayed 3 days after transfection): significant increase in IKAP protein levels | Percent inclusion of exon 20 in human IKBKAP mRNA (human IKBKAP mRNA [2]; ICV infusion 50 μg/day for a week): 40% | Percent inclusion of exon 20 in human IKBKAP mRNA (human IKBKAP mRNA [2]; ICV infusion 100 μg/day for a week): 46% | Percent inclusion of exon 20 in human IKBKAP mRNA (human IKBKAP mRNA [2]; ICV infusion 200 μg/day for a week): 60% | inclusion of exon 20 in human IKBKAP mRNA, in words (human IKBKAP mRNA [2]; ICV infusion 50-200 μg/day): dose-dependent increase in the inclusion of exon 20 | tissue pattern of full-length IKBKAP mRNA, in words (human IKBKAP mRNA [3]; ICV administration): increased full-length IKBKAP mRNA in the brain and spinal cord, with moderate effects in the peripheral tissues | Percent inclusion of exon 20 in human IKBKAP mRNA (human IKBKAP mRNA [3]; ICV administration, Brain): 50% | Percent inclusion of exon 20 in human IKBKAP mRNA (human IKBKAP mRNA [3]; ICV administration, Heart): 40% | Percent inclusion of exon 20 in human IKBKAP mRNA (human IKBKAP mRNA [3]; ICV administration, Kidney): 33% | Percent inclusion of exon 20 in human IKBKAP mRNA (human IKBKAP mRNA [3]; ICV administration, Liver): 44% | Percent inclusion of exon 20 in human IKBKAP mRNA (human IKBKAP mRNA [3]; ICV administration, Muscle): 33% | Percent inclusion of exon 20 in human IKBKAP mRNA (human IKBKAP mRNA [3]; ICV administration, Spinal Cord): 47% | Percent inclusion of exon 20 in human IKBKAP mRNA (human IKBKAP mRNA [3]; s.c. injection, Brain): 18% | Percent inclusion of exon 20 in human IKBKAP mRNA (human IKBKAP mRNA [3]; s.c. injection, Heart): 58% | Percent inclusion of exon 20 in human IKBKAP mRNA (human IKBKAP mRNA [3]; s.c. injection, Kidney): 36% | Percent inclusion of exon 20 in human IKBKAP mRNA (human IKBKAP mRNA [3]; s.c. injection, Liver): 72% | Percent inclusion of exon 20 in human IKBKAP mRNA (human IKBKAP mRNA [3]; s.c. injection, Muscle): 60% | Percent inclusion of exon 20 in human IKBKAP mRNA (human IKBKAP mRNA [3]; s.c. injection, Spinal Cord): 19% | Percent inclusion of exon 20 in human IKBKAP mRNA (human IKBKAP mRNA [3]; single ICV injection 2.5 μg at P1, RNA at P8): 13% | Percent inclusion of exon 20 in human IKBKAP mRNA (human IKBKAP mRNA [3]; single ICV injection 5 μg at P1, RNA at P8): 18% | Percent inclusion of exon 20 in human IKBKAP mRNA (human IKBKAP mRNA [3]; single ICV injection 10 μg at P1, RNA at P8): 34% | Percent inclusion of exon 20 in human IKBKAP mRNA (human IKBKAP mRNA [3]; single ICV injection 20 μg at P1, RNA at P8): 36% | Percent inclusion of exon 20 in human IKBKAP mRNA (human IKBKAP mRNA [3]; single ICV injection 30 μg at P1, RNA at P8): 48% | tissue pattern of full-length IKBKAP mRNA, in words (human IKBKAP mRNA [3]; subcutaneous administration): primarily affected expression in the liver, skeletal muscle, and heart with moderate effects in the CNS
